Converted amounts (≈) assume the structure as drawn. Like-named read-outs stand apart in the source and are kept apart here.

The test system of this test is Plasmopara viticola. The experiment in a line: In vivo test with respect to Plasmopara viticola (grape downy mildew) on Chardonnay vine cuttings, preventive treatment 72 hours before infection. Particulars: in Vitis vinifera, spray 72 h before infection, reading 7 days after infection, read-out: dose of A alone which it is necessary to apply for the destruction of 50% of the parasite. As to the method: A suspension comprising the compounds A and B in a liquid mixture composed of a surface-active agent (oleate of polyoxyethylenated derivative of sorbitan) and water is prepared.
The component B is fosetyl-Al; the A/B ratio is 0.05, 0.07 and 0.1 (B/A=20, 15 and 10).
Vine (Vitis vinifera) cuttings, variety Chardonnay, are grown in small pots. When these seedlings are 2 months old (8- to 10-leaf stage, height of 10 to 15 cm), they are treated by spraying with the above suspension.
After 72 hours, each seedling is infected by spraying with an aqueous suspension of spores of Plasmopara viticola, which suspension is obtained from sporulated leaves infected 7 days previously. These spores are suspended at a concentration of 100,000 units per cm^3 of inoculum. Infection is carried out by spraying the inoculum at the undersurface of the leaves.
The infected seedlings are then incubated for seven days at 20-22° C. at 90-100% relative humidity under natural light.
Reading is carried out 7 days after infection, in comparison with the control seedlings.
The results obtained are reported in the form of points, corresponding to 50% destruction of the parasite, and are plotted on a Tammes isobole diagram which contains, on the abscissa, the doses of A expressed in ppm (mg/l) and, on the ordinate, the doses of B, also in ppm (mg/l). […]

Turning to `CNC(=O)/C(=N/OC)c1ccccc1COc1cc(C)ccc1C` [SSF-129, N-methyl-(E)-methoxyimino[2-(2,5-dimethylphenoxymethyl)phenyl]acetamide], the EC50 (A = SSF-129 alone) was 4.6 µg/mL (≈ 14.1 µM).

`CO/C=C(/C(=O)OC)c1ccccc1Oc1cc(Oc2ccccc2C#N)ncn1` [ICIA5504, methyl (E)-2-{2-[6-(2-cyanophenoxy)pyrimidin-4-yloxy]phenyl}-3-methoxyacrylate]: the EC50 (A = ICIA5504 alone) was found to be 1.5 µg/mL (≈ 3.72 µM).
